Laboratory results taken from PubChem BioAssay AID977613 (Broad Institute, 2014).
Calls of active or inactive are those of the source. No rule for the calls is given here.

Each compound was assayed on Broad 7084-01 inhibitor HTS, set 2 (assay: single-concentration hits, screen 7084 set 2 (AID 977613);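 also: host cells are infected with parasite promastigotes that become internalized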).

| Structure (SMILES) | active concentration |
| --- | --- |
| CC(C)C#Cc1ccc([C@@H]2[C@@H](CO)N3C(=O)CN(C(=O)Cc4ccccc4)C[C@H]23)cc1 | > 10 µM (inactive) |
| O=C1CNC[C@@H]2[C@@H](c3ccc(C#CC4CCCCC4)cc3)[C@H](CO)N12 | > 10 µM (inactive) |
| COc1cccc(-c2ccc([C@H]3[C@@H](CO)N4C(=O)CN(C(=O)c5cccnc5)C[C@@H]34)cc2)c1 | > 10 µM (inactive) |
| COC(=O)C[C@@H]1CC[C@@H]2[C@H](COc3ccc(NS(=O)(=O)c4ccccc4Cl)cc3C(=O)N2C)O1 | > 10 µM (inactive) |
| O=C(Nc1ccc(-c2ccccc2)cc1)[C@@H]1[C@@H](CO)[C@@H]2Cn3c(cccc3=O)[C@H]1N2Cc1ccncc1 | > 10 µM (inactive) |
| O=C(C[C@@H]1CC[C@@H]2[C@H](COC[C@@H](O)CN2Cc2ccc(Cl)cc2)O1)NCc1ccccc1Cl | > 10 µM (inactive) |
| O=C(C1CCCCC1)N1CC(=O)N2[C@H](CO)[C@H](c3ccc(-c4ccccc4F)cc3)[C@@H]2C1 | > 10 µM (inactive) |
| COc1ccccc1CN1[C@@H]2c3ccc(C4=CCCC4)c(=O)n3C[C@H]1[C@H](CO)[C@H]2C(=O)N(C)C | > 10 µM (inactive) |
| O=C(c1cccc(F)c1)N1C[C@@H]2[C@H](c3ccccc31)[C@H](CO)N2Cc1cocn1 | > 10 µM (inactive) |
| CC(C)NC(=O)N1CC2(C1)[C@H](c1ccccc1)[C@H](CO)N2Cc1cncnc1 | < 10 µM |
| C/C=C/c1ccc([C@@H]2[C@H](CO)N(CC3CC3)C23CN(C(=O)c2ccc4c(c2)OCO4)C3)cc1 | > 10 µM (inactive) |
| COc1ccc2c3c([nH]c2c1)[C@@H](CO)N(S(=O)(=O)c1cn(C)cn1)CC31CCN(CC2CCCCC2)CC1 | > 10 µM (inactive) |
| CC1C=NC(S(=O)(=O)N2CC[C@@H]3[C@H](CO)N(C)c4ccc(-c5ccccc5F)cc4[C@@H]32)=N1 (stereo not given in full) | > 10 µM (inactive) |
| C/C=C/c1ccc([C@H]2[C@@H](CO)N3C(=O)CN(Cc4ccc(F)cc4)C[C@@H]23)cc1 | > 10 µM (inactive) |
| CN1CCN(C(=O)C[C@H]2CC[C@@H]3[C@H](COC[C@H](O)CN3C(=O)C3CC3)O2)CC1 | > 10 µM (inactive) |
| O=C(c1ccccc1)N1CC(=O)N2[C@H](C1)[C@@H](c1ccc(-c3ccccc3)cc1)[C@@H]2CO | > 10 µM (inactive) |
| O=C(C[C@@H]1CC[C@@H]2[C@H](COC[C@H](O)CN2CC2CC2)O1)NCc1ccc(Cl)cc1 | > 10 µM (inactive) |
| OC[C@@H]1[C@@H](c2ccc(C#CC3(O)CCCC3)cc2)[C@@H]2CN(Cc3cncnc3)CCCCN12 | > 10 µM (inactive) |
| C/C=C/c1ccc([C@@H]2[C@@H](CO)N3CCCCN(S(=O)(=O)c4ccc(OC)cc4)C[C@H]23)cc1 | > 10 µM (inactive) |
| COCC(=O)N1CC2(C1)[C@H](c1ccc(-c3ccc(C)cc3)cc1)[C@@H](CO)N2C(C)=O | > 10 µM (inactive) |
| COc1ccc(CN2[C@H](CO)[C@H]3c4ccccc4N(C(=O)Nc4ccc(F)cc4)C[C@H]32)cc1 | > 10 µM (inactive) |
| COc1cccc(S(=O)(=O)N2CC3(CCN(C)CC3)c3c([nH]c4cc(OC)ccc34)[C@@H]2CO)c1 | > 10 µM (inactive) |
| CCC(=O)N1[C@@H]2Cn3c(ccc(-c4ccncc4)c3=O)[C@H]1[C@@H](C(=O)NC1Cc3ccccc3C1)[C@@H]2CO | > 10 µM (inactive) |
| O=C(C[C@H]1CC[C@@H]2[C@H](COC[C@H](O)CN2CCC(F)(F)F)O1)NCC1CC1 | > 10 µM (inactive) |
| O=C(Nc1cccc(Cl)c1)N1C[C@@H]2[C@H](c3ccccc31)[C@@H](CO)N2CC1CCOCC1 | > 10 µM (inactive) |

| Structure (SMILES) | active concentration |
| --- | --- |
| CC=Cc1ccc2n(c1=O)C[C@H]1[C@H](CO)[C@@H](C(=O)OC)N(CCc3ccccc3)[C@@H]21 (mixture of isomers) | > 10 µM (inactive) |
| COCC(=O)N1[C@H](C#N)[C@@H](c2ccccc2-c2ccccc2F)[C@@H]1CO | > 10 µM (inactive) |
| COc1ccc2c3c(n(C)c2c1)[C@H](CO)N(C(=O)Nc1ccc(F)cc1)CC31CCN(C(=O)c2ccc3c(c2)OCO3)CC1 | > 10 µM (inactive) |
| CN1C(=O)c2cc(NC(=O)Cc3cccs3)ccc2OC[C@@H]2O[C@@H](CC(=O)N[C@H]3CCN(Cc4ccccc4)C3)CC[C@H]21 | > 10 µM (inactive) |
| COCC(=O)N1[C@H](CO)[C@H](c2ccccc2-c2ccccc2F)[C@@H]1C#N | > 10 µM (inactive) |
| O=C(C1CCOCC1)N1CC(=O)N2[C@H](C1)[C@@H](c1ccc(C#CCc3ccccc3)cc1)[C@@H]2CO | > 10 µM (inactive) |
| C/C=C/c1ccc([C@H]2[C@@H](CO)N(CCC(F)(F)F)C23CN(C(=O)COC)C3)cc1 | > 10 µM (inactive) |
| CS(=O)(=O)N1[C@H](CO)[C@@H](c2ccccc2)C12CN(Cc1ccccn1)C2 | > 10 µM (inactive) |
| O=C(C[C@@H]1CC[C@H]2[C@@H](COC[C@H](O)CN2Cc2ccccc2)O1)NCCc1ccccc1 | > 10 µM (inactive) |
| CN(C)C(=O)C[C@@H]1CC[C@@H]2[C@H](COC[C@H](O)CN2CC2CCCC2)O1 | > 10 µM (inactive) |
| COCC(=O)N1CC2(C1)CN(C(=O)NC1CCCC1)[C@H](CO)c1c2c2ccc(OC)cc2n1C | > 10 µM (inactive) |
| O=S(=O)(c1cccs1)N1CCCCN2[C@@H](CO)[C@@H](c3ccc(/C=C/c4ccccc4)cc3)[C@@H]2C1 | > 10 µM (inactive) |
| O=C(NC1CCCCC1)N1CC2(C1)[C@H](c1ccccc1)[C@H](CO)N2CC1CCCC1 | > 10 µM (inactive) |
| CN1c2ccc(C3=CCCCC3)cc2[C@H]2[C@H](CCN2C(=O)C2CCCC2)[C@@H]1CO | > 10 µM (inactive) |
| CC(=O)N1CCCCN2[C@@H](CO)[C@H](c3ccc(-c4ccccc4)cc3)[C@@H]2C1 | > 10 µM (inactive) |
| O=C(O)[C@H]1[C@H](CO)[C@H]2Cn3c(ccc(C4=CCCCC4)c3=O)[C@@H]1N2C(=O)Cc1ccccn1 | > 10 µM (inactive) |
| O=C(C[C@@H]1CC[C@H]2[C@@H](COC[C@@H](O)CN2Cc2cc(F)cc(F)c2)O1)NC1CCC1 | > 10 µM (inactive) |
| O=C(C[C@@H]1CC[C@@H]2[C@H](COC[C@@H](O)CN2C(=O)Cc2ccccc2)O1)NC1CCCC1 | > 10 µM (inactive) |
| COc1ccc2c3c([nH]c2c1)[C@@H](CO)N(S(C)(=O)=O)CC31CCN(C(=O)Nc2ccccc2)CC1 | > 10 µM (inactive) |
| O=C(C[C@@H]1CC[C@H]2[C@@H](COC[C@@H](O)CN2C(=O)Cc2ccccc2)O1)NC1CCCC1 | > 10 µM (inactive) |
| COCCNC(=O)[C@@H]1[C@@H](CO)[C@@H]2Cn3c(cccc3=O)[C@H]1N2S(=O)(=O)c1ccccc1C | > 10 µM (inactive) |
| O=C(C[C@H]1CC[C@@H]2[C@H](COC[C@H](O)CN2S(=O)(=O)c2ccccc2)O1)Nc1ccccc1 | > 10 µM (inactive) |
| CN1[C@@H]2CN(C(=O)C3CCCCC3)c3ccccc3[C@@H]2[C@@H]1CO | > 10 µM (inactive) |
| COc1ccc2c3c([nH]c2c1)[C@@H](CO)N(S(=O)(=O)c1ccc(C)cc1)CC31CCN(C(=O)Cc2cccnc2)CC1 | > 10 µM (inactive) |
| O=C(c1ccccc1F)N1CC[C@H]2[C@H](CO)Nc3ccc(Br)cc3[C@H]21 | > 10 µM (inactive) |
